Measurements taken from the supplement of paper PMC6045584.
± gives the standard deviation of the averaged measurements.

Legend:
SAPACITABINE = compound: CCCCCCCCCCCCCCCC(=O)Nc1ccn([C@@H]2O[C@H](CO)[C@@H](O)[C@@H]2C#N)c(=O)n1 [SAPACITABINE]; experiment: surviving fraction relative to DMSO-only wells; higher = less growth inhibition; conditions: exposure time: 5 days
How it was run: (§1)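 Log-phase tumour cell lines, 250–500 cells per well in 384-well plates, received inhibitors at 0.5, 1, 5, 10, 50, 100, 500 and 1000 nM continuously for five days, starting 24 hours after seeding. Viability was quantified with CellTiter-Glo luminescence and normalised to the median of DMSO-only wells to give surviving fraction. Three screens were run per line, and a line stayed in only with replicate Pearson r >0.7 and median Z' >0.3.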

AFATINIB = compound: CN(C)C/C=C/C(=O)Nc1cc2c(Nc3ccc(F)c(Cl)c3)ncnc2cc1O[C@H]1CCOC1 [AFATINIB]; experiment: as above; conditions: exposure time: 5 days
How it was run: as §1

Test System | surviving fraction (SAPACITABINE; 0.5 nM) | surviving fraction (SAPACITABINE; 1 nM) | surviving fraction (SAPACITABINE; 5 nM) | surviving fraction (SAPACITABINE; 10 nM) | surviving fraction (SAPACITABINE; 50 nM) | surviving fraction (SAPACITABINE; 100 nM) | surviving fraction (SAPACITABINE; 500 nM) | surviving fraction (SAPACITABINE; 1000 nM) | surviving fraction (AFATINIB; 0.5 nM) | surviving fraction (AFATINIB; 1 nM) | surviving fraction (AFATINIB; 5 nM) | surviving fraction (AFATINIB; 10 nM) | surviving fraction (AFATINIB; 50 nM) | surviving fraction (AFATINIB; 100 nM) | surviving fraction (AFATINIB; 500 nM) | surviving fraction (AFATINIB; 1000 nM)
HS57T BREAST | 0.892 ± 0.016 | 0.885 ± 0.028 | 0.904 ± 0.051 | 0.853 ± 0.027 | 0.75 ± 0.024 | 0.612 ± 0.045 | 0.325 ± 0.037 | 0.246 ± 0.011 | 1.05 ± 0.053 | 1.03 ± 0.056 | 1.13 ± 0.023 | 1.04 ± 0.051 | 1.11 ± 0.077 | 1.09 ± 0.076 | 0.787 ± 0.024 | 0.423 ± 0.057
OSHN BONE | 0.902 ± 0.034 | 0.917 ± 0.024 | 0.92 ± 0.013 | 0.891 ± 0.014 | 0.998 ± 0.02 | 0.928 ± 0.011 | 0.345 ± 0.032 | 0.158 ± 0.011 | 1.08 ± 0.03 | 1.07 ± 0.031 | 1.09 ± 0.042 | 1.07 ± 0.032 | 1.11 ± 0.032 | 1.11 ± 0.033 | 1.1 ± 0.031 | 1.06 ± 0.019
HOSMNG BONE | 0.96 ± 0.087 | 1.02 ± 0.032 | 1.06 ± 0.021 | 1.04 ± 0.031 | 1.12 ± 0.078 | 1.16 ± 0.016 | 0.948 ± 0.021 | 0.703 ± 0.046 | 0.944 ± 0.077 | 0.974 ± 0.04 | 0.98 ± 0.021 | 0.915 ± 0.11 | 1.04 ± 0.054 | 1.02 ± 0.13 | 1.06 ± 0.048 | 0.991 ± 0.088
SCC36 HEADNECK | 0.776 ± 0.055 | 0.793 ± 0.048 | 0.815 ± 0.05 | 0.797 ± 0.11 | 1.02 ± 0.16 | 0.939 ± 0.092 | 0.737 ± 0.064 | 0.577 ± 0.0091 | 0.926 ± 0.088 | 0.719 ± 0.061 | 0.523 ± 0.037 | 0.457 ± 0.031 | 0.418 ± 0.027 | 0.376 ± 0.029 | 0.264 ± 0.0053 | 0.149 ± 0.017
CADOES1 SOFT TISSUE | 1.04 ± 0.053 | 1.03 ± 0.022 | 0.915 ± 0.11 | 0.857 ± 0.074 | 0.553 ± 0.075 | 0.209 ± 0.066 | 0.0497 ± 0.0072 | 0.0437 ± 0.0035 | 0.833 ± 0.033 | 0.909 ± 0.063 | 0.914 ± 0.0056 | 0.98 ± 0.011 | 0.837 ± 0.018 | 0.997 ± 0.024 | 0.931 ± 0.11 | 0.724 ± 0.051
CME SYNOVIAL | 0.788 ± 0.087 | 0.415 ± 0.05 | 0.703 ± 0.091 | 0.027 ± 0.011 | 0.922 ± 0.077 | 0.379 ± 0.075 | 0.248 ± 0.016 | 0.034 ± 0.0076 | 1.34 ± 0.1 | 1.37 ± 0.18 | 1.33 ± 0.13 | 1.28 ± 0.17 | 1.44 ± 0.19 | 1.32 ± 0.12 | 1.26 ± 0.062 | 0.733 ± 0.066
93VU HEADNECK | 0.75 ± 0.041 | 0.764 ± 0.051 | 0.862 ± 0.059 | 0.849 ± 0.16 | 1.02 ± 0.026 | 0.927 ± 0.049 | 0.74 ± 0.086 | 0.611 ± 0.017 | 0.895 ± 0.046 | 0.883 ± 0.053 | 0.697 ± 0.075 | 0.59 ± 0.043 | 0.469 ± 0.085 | 0.46 ± 0.049 | 0.387 ± 0.017 | 0.302 ± 0.022
LNCAP PROSTATE | 1.04 ± 0.033 | 1.09 ± 0.059 | 0.998 ± 0.053 | 0.913 ± 0.031 | 0.51 ± 0.012 | 0.329 ± 0.035 | 0.208 ± 0.014 | 0.159 ± 0.012 | 1.03 ± 0.093 | 0.998 ± 0.083 | 0.995 ± 0.062 | 0.922 ± 0.073 | 0.892 ± 0.11 | 1.01 ± 0.069 | 0.854 ± 0.1 | 0.649 ± 0.051
CAL120 BREAST | 0.917 ± 0.028 | 0.901 ± 0.047 | 0.893 ± 0.081 | 0.876 ± 0.053 | 0.749 ± 0.06 | 0.631 ± 0.038 | 0.428 ± 0.01 | 0.3798 ± 0.0035 | 0.955 ± 0.035 | 0.96 ± 0.0041 | 0.968 ± 0.035 | 0.928 ± 0.013 | 0.908 ± 0.032 | 0.852 ± 0.029 | 0.671 ± 0.01 | 0.471 ± 0.038
MDAMB436 BREAST | 0.861 ± 0.07 | 0.795 ± 0.08 | 0.75 ± 0.074 | 0.719 ± 0.075 | 0.561 ± 0.029 | 0.497 ± 0.053 | 0.445 ± 0.049 | 0.352 ± 0.013 | 0.924 ± 0.014 | 0.974 ± 0.078 | 0.922 ± 0.05 | 0.905 ± 0.0097 | 0.996 ± 0.063 | 0.892 ± 0.035 | 0.763 ± 0.06 | 0.647 ± 0.029
SG27 HEADNECK | 1.05 ± 0.027 | 1.01 ± 0.041 | 1 ± 0.16 | 0.731 ± 0.054 | 0.97 ± 0.021 | 0.975 ± 0.075 | 0.999 ± 0.025 | 0.885 ± 0.022 | 1 ± 0.09 | 0.981 ± 0.035 | 1.04 ± 0.041 | 1 ± 0.14 | 0.883 ± 0.012 | 0.966 ± 0.13 | 0.865 ± 0.093 | 0.831 ± 0.068
MDAMB134 BREAST | 0.689 ± 0.09 | 0.627 ± 0.083 | 0.65 ± 0.046 | 0.7515 ± 0.0035 | 0.785 ± 0.036 | 0.821 ± 0.11 | 0.817 ± 0.058 | 0.916 ± 0.054 | 1.07 ± 0.046 | 0.997 ± 0.15 | 1.24 ± 0.25 | 0.967 ± 0.15 | 1.09 ± 0.078 | 0.886 ± 0.076 | 0.741 ± 0.031 | 0.725 ± 0.12
HCC78 LUNG | 0.831 ± 0.058 | 0.916 ± 0.25 | 0.913 ± 0.038 | 0.354 ± 0.035 | 0.445 ± 0.095 | 0.123 ± 0.052 | 0.039 ± 0.0087 | 0.0357 ± 0.0059 | 0.943 ± 0.12 | 0.936 ± 0.17 | 0.867 ± 0.21 | 0.787 ± 0.19 | 0.64 ± 0.16 | 0.682 ± 0.13 | 0.383 ± 0.13 | 0.235 ± 0.027
143B BONE | 1.03 ± 0.067 | 1.05 ± 0.029 | 1.08 ± 0.069 | 1.06 ± 0.03 | 1.08 ± 0.047 | 1.12 ± 0.098 | 1.05 ± 0.079 | 0.942 ± 0.05 | 1.0165 ± 0.00071 | 1.05 ± 0.011 | 1.0335 ± 0.00071 | 1.02 ± 0.014 | 1.01 ± 0.023 | 1.02 ± 0.02 | 1 ± 0.028 | 0.871 ± 0.11
SJSA1 BONE | 1.24 ± 0.072 | 1.18 ± 0.095 | 1.19 ± 0.25 | 1.21 ± 0.066 | 1.65 ± 0.058 | 1.74 ± 0.087 | 1.65 ± 0.1 | 1.75 ± 0.11 | 1.05 ± 0.014 | 0.9563 ± 0.0055 | 1.11 ± 0.017 | 1.04 ± 0.05 | 1.15 ± 0.063 | 1.07 ± 0.023 | 0.995 ± 0.041 | 0.613 ± 0.033
SG32 HEADNECK | 0.715 ± 0.068 | 0.614 ± 0.17 | 0.907 ± 0.12 | 0.429 ± 0.12 | 0.707 ± 0.11 | 0.487 ± 0.065 | 0.447 ± 0.082 | 0.289 ± 0.078 | 1.13 ± 0.14 | 1.09 ± 0.082 | 1.13 ± 0.2 | 1.01 ± 0.078 | 0.895 ± 0.11 | 0.864 ± 0.07 | 0.637 ± 0.081 | 0.348 ± 0.09
